The assay relates to BDF1 mice, Adenocarcinoma 755 s.c., tumor weight T/C. In words: NCI In Vivo Anticancer Drug Screen. Data for tumor model Adenocarcinoma 755 (subcutaneous) in B6D2F1 (BDF1) mice. The settings on record: endpoint: mean tumor weight, higher = larger tumour. As for the experimental part: The antitumor activity of compounds was measured in mice bearing transplantable tumors. Survival or tumor size were measured and the results are expressed as the measurement made in the treated group (T) divided by the measurement made in the vehicle treated control group (C). The tumor model used in this assay is Adenocarcinoma 755 (subcutaneous) in B6D2F1 (BDF1) mice

“And” between values parts separate entries of the source, which are not always exact repeats. Equal entries are not always repeated.

By T/C is commonly meant the result in the treated group divided by that in the control group, in per cent. Consider `Nc1nc(SCc2ccncc2)c2[nH]cnc2n1`, for which the T/C is 71 % of control (dose: 1.25 mg/kg/injection, schedule: Q01DX011 (ip), vehicle: methylcellulose (MC)); 41 % of control (dose: 2.5 mg/kg/injection, schedule: Q01DX011 (ip), vehicle: methylcellulose (MC)); 31 % of control (dose: 5.0 mg/kg/injection, schedule: Q01DX011 (ip), vehicle: methylcellulose (MC)); 9 % of control and 12 % of control (dose: 10.0 mg/kg/injection, schedule: Q01DX011 (ip), vehicle: methylcellulose (MC)); 3 % of control (dose: 20.0 mg/kg/injection, schedule: Q01DX011 (ip), vehicle: methylcellulose (MC)).

For `CSc1nc(N)cc(=O)n1C`, the T/C is 100 % of control (dose: 50.0 mg/kg/injection, schedule: Q01DX011 (ip), vehicle: saline); 63 % of control (dose: 100.0 mg/kg/injection, schedule: Q01DX011 (ip), vehicle: saline); 98 % of control (dose: 200.0 mg/kg/injection, schedule: Q01DX011 (ip), vehicle: saline).

Take `Cn1c[n+](C2OC(CO)C(O)C2O)c2nc([O-])[nH]c(=O)c21` (centres undefined): the T/C runs as follows: (dose: 25.0 mg/kg/injection, schedule: Q01DX011 (ip), vehicle: methylcellulose (MC)) 65 % of control; (dose: 75.0 mg/kg/injection, schedule: Q01DX011 (ip), vehicle: methylcellulose (MC)) 103 % of control; (dose: 225.0 mg/kg/injection, schedule: Q01DX011 (ip), vehicle: methylcellulose (MC)) 44 % of control.

In the case of `CC(=O)[C@H]1[C@H](C)C[C@H]2[C@@H]3CCC4=CC(=O)CC[C@]4(C)[C@@]3(F)[C@@H](O)C[C@@]21C`, the T/C runs as follows: (dose: 5.31 mg/kg/injection, schedule: Q01DX011 (sc), vehicle: steriod suspending solution) 108 % of control; (dose: 6.0 mg/kg/injection, schedule: Q01DX011 (sc), vehicle: steriod suspending solution) 62 % of control; (dose: 10.62 mg/kg/injection, schedule: Q01DX011 (sc), vehicle: steriod suspending solution) 85 % of control; (dose: 12.0 mg/kg/injection, schedule: Q01DX011 (sc), vehicle: steriod suspending solution) 27 % of control; (dose: 21.25 mg/kg/injection, schedule: Q01DX011 (sc), vehicle: steriod suspending solution) 86 % of control; (dose: 25.0 mg/kg/injection, schedule: Q01DX011 (sc), vehicle: steriod suspending solution) 23 % of control. The T/C was 39 % of control and 48 % of control (dose: 42.5 mg/kg/injection, schedule: Q01DX011 (sc), vehicle: steriod suspending solution); 16 % of control (dose: 50.0 mg/kg/injection, schedule: Q01DX011 (sc), vehicle: steriod suspending solution); 17 % of control (dose: 85.0 mg/kg/injection, schedule: Q01DX011 (sc), vehicle: steriod suspending solution); 12 % of control (dose: 100.0 mg/kg/injection, schedule: Q01DX011 (sc), vehicle: steriod suspending solution); 18 % of control (dose: 170.0 mg/kg/injection, schedule: Q01DX011 (sc), vehicle: steriod suspending solution); 18 % of control and 23 % of control (dose: 340.0 mg/kg/injection, schedule: Q01DX011 (sc), vehicle: steriod suspending solution). The T/C by setting is: (dose: 680.0 mg/kg/injection, schedule: Q01DX011 (sc), vehicle: steriod suspending solution) 8 % of control and 26 % of control; (dose: 1360.0 mg/kg/injection, schedule: Q01DX011 (sc), vehicle: steriod suspending solution) 4 % of control.

As to `O=C(CC[n+]1ccccc1)N1CCN(C(=O)CC[n+]2ccccc2)CC1`, the T/C by setting is: (dose: 1.0 mg/kg/injection, schedule: Q01DX011 (ip), vehicle: methylcellulose (MC)) 94 % of control; (dose: 3.0 mg/kg/injection, schedule: Q01DX011 (ip), vehicle: methylcellulose (MC)) 68 % of control.

As for `Cc1ccc(C(=O)OCC2OC(n3cnc4c(=S)nc(N)[nH]c43)C(OC(=O)c3ccc(C)cc3)C2OC(=O)c2ccc(C)cc2)cc1` (centres undefined), the T/C was 81 % of control (dose: 100.0 mg/kg/injection, schedule: Q01DX011 (ip), vehicle: carboxymethylcellulose (CMC)); 4 % of control and 12 % of control (dose: 200.0 mg/kg/injection, schedule: Q01DX011 (ip), vehicle: carboxymethylcellulose (CMC)).

Take `[I][Hg][CH2]C1COC([CH2][Hg][I])CO1` (centres undefined): the T/C by setting is: (dose: 0.8 mg/kg/injection, schedule: Q#A X022 (ip), vehicle: carboxymethylcellulose (CMC)) 96 % of control; (dose: 1.25 mg/kg/injection, schedule: Q#A X022 (ip), vehicle: carboxymethylcellulose (CMC)) 43 % of control; (dose: 1.9 mg/kg/injection, schedule: Q#A X022 (ip), vehicle: carboxymethylcellulose (CMC)) 84 % of control; (dose: 2.85 mg/kg/injection, schedule: Q#A X022 (ip), vehicle: carboxymethylcellulose (CMC)) 35 % of control and 50 % of control; (dose: 2.9 mg/kg/injection, schedule: Q01DX006 (iv), vehicle: carboxymethylcellulose (CMC)) 154 % of control; (dose: 4.3 mg/kg/injection, schedule: Q#A X022 (ip), vehicle: carboxymethylcellulose (CMC)) 36 % of control. Besides, the T/C is 90 % of control (dose: 4.4 mg/kg/injection, schedule: Q01DX006 (iv), vehicle: carboxymethylcellulose (CMC)); 23 % of control (dose: 6.5 mg/kg/injection, schedule: Q#A X022 (ip), vehicle: carboxymethylcellulose (CMC)); 95 % of control (dose: 6.6 mg/kg/injection, schedule: Q01DX006 (iv), vehicle: carboxymethylcellulose (CMC)); 78 % of control (dose: 10.0 mg/kg/injection, schedule: Q01DX006 (iv), vehicle: carboxymethylcellulose (CMC)); 62 % of control (dose: 22.0 mg/kg/injection, schedule: Q03DX004 (ip), vehicle: carboxymethylcellulose (CMC)); 71 % of control (dose: 24.0 mg/kg/injection, schedule: Q01DX011 (oral), vehicle: carboxymethylcellulose (CMC)). The T/C is 75 % of control (dose: 25.0 mg/kg/injection, schedule: Q01DX011 (oral), vehicle: methylcellulose (MC)); 96 % of control (dose: 35.0 mg/kg/injection, schedule: Q01DX001 (ip), vehicle: carboxymethylcellulose (CMC)); 92 % of control (dose: 35.0 mg/kg/injection, schedule: Q01DX011 (oral), vehicle: carboxymethylcellulose (CMC)); 69 % of control (dose: 35.0 mg/kg/injection, schedule: Q03DX004 (ip), vehicle: carboxymethylcellulose (CMC)); 77 % of control (dose: 35.0 mg/kg/injection, schedule: Q07DX002 (ip), vehicle: carboxymethylcellulose (CMC)); 86 % of control (dose: 50.0 mg/kg/injection, schedule: Q01DX011 (oral), vehicle: methylcellulose (MC)). The T/C (dose: 50.0 mg/kg/injection, schedule: Q03DX004 (ip), vehicle: carboxymethylcellulose (CMC)) was 51 % of control; the T/C (dose: 55.0 mg/kg/injection, schedule: Q01DX011 (oral), vehicle: carboxymethylcellulose (CMC)) was 81 % of control; the T/C (dose: 60.0 mg/kg/injection, schedule: Q01DX011 (ip), vehicle: methylcellulose (MC)) is 15 % of control; the T/C (dose: 80.0 mg/kg/injection, schedule: Q01DX011 (oral), vehicle: carboxymethylcellulose (CMC)) was 78 % of control; the T/C (dose: 85.0 mg/kg/injection, schedule: Q01DX001 (ip), vehicle: carboxymethylcellulose (CMC)) is 89 % of control; the T/C (dose: 100.0 mg/kg/injection, schedule: Q01DX011 (oral), vehicle: methylcellulose (MC)) is 74 % of control. The T/C was 60 % of control (dose: 120.0 mg/kg/injection, schedule: Q01DX011 (ip), vehicle: methylcellulose (MC)); 36 % of control (dose: 160.0 mg/kg/injection, schedule: Q01DX011 (im), vehicle: carboxymethylcellulose (CMC)); 42 % of control (dose: 160.0 mg/kg/injection, schedule: Q01DX011 (sc), vehicle: carboxymethylcellulose (CMC)); 8 % of control (dose: 240.0 mg/kg/injection, schedule: Q01DX011 (sc), vehicle: carboxymethylcellulose (CMC)); 10 % of control (dose: 360.0 mg/kg/injection, schedule: Q01DX011 (im), vehicle: carboxymethylcellulose (CMC)).

As to `COc1ccc(-c2c(C)c(C(=O)O)nc(-c3ccc(C(=O)O)c(C(=O)O)n3)c2N)c(O)c1OC`, the T/C runs as follows: (dose: 100.0 mg/kg/injection, schedule: Q01DX011 (ip), vehicle: water) 58 % of control; (dose: 200.0 mg/kg/injection, schedule: Q01DX011 (ip), vehicle: water) 83 % of control.

On to `NC1C(O)C(O)C(Nc2ncnc3nc[nH]c23)OC1C(O)CO` (centres undefined), for which the T/C (dose: 0.18 mg/kg/injection, schedule: Q## X000 (ip), vehicle: carboxymethylcellulose (CMC)) is 65 % of control; the T/C (dose: 0.35 mg/kg/injection, schedule: Q## X000 (ip), vehicle: carboxymethylcellulose (CMC)) was 65 % of control; the T/C (dose: 0.7 mg/kg/injection, schedule: Q## X000 (ip), vehicle: carboxymethylcellulose (CMC)) is 67 % of control; the T/C (dose: 1.35 mg/kg/injection, schedule: Q## X000 (ip), vehicle: carboxymethylcellulose (CMC)) is 107 % of control.

These data come from PubChem BioAssay AID180 (DTP/NCI, 2004).
